Results from PMC6440464 (PeerJ, 2019).
Where “and” joins values, the source holds several entries; their conditions need not be identical. Equal entries are not always repeated.

Experiment: Pharmacokinetics study after separate oral administration in rats (HPLC-MS of plasma)
Type: in vivo, Sprague-Dawley rats
Settings: for Plasma concentrations: individual rats NO. 1-5; for AUC(0-t) / Cmax / Tmax / t1/2z: labelled substance = analyte, individual rats No1-No5
Experimental: A total of 15 SPF Sprague-Dawley rats (SD, male, 190–210 g) were provided by Sino-British Sippr/BK Lab Animal Company Ltd. (Shanghai, China). The rats were kept in standard conditions (22–26 °C; 40–60% relative humidity; 12 h light/dark cycle). Throughout the rearing period, the animals had access to food and water ad libitum. Animal experiments were conducted in accordance with the standard ethical guidelines of the Laboratory Animal Management Committee of Jiangsu Province (SYXK (SU) 2016-0011).
Following 1 week of adaptation, the rats were fasted for about 12 h before dosing, with free access to water. […] After administration of the first dose, blood samples were taken from the retro-orbital vein at 0, 5, 15, 30, 60, 90, 120, 180, 240, 360, 480, and 1,440 min and collected in heparinized tubes. The samples were centrifuged at 3,500 rpm for 10 min at 4 °C and the plasma was stored at −80 °C until analysis.
An Agilent 1,200 series HPLC system (Agilent Technologies, Waldbronn, Germany) equipped with a quaternary pump on-line degasser, auto-sampler and column oven, and an SL G1946D quadruple mass spectrometer (Agilent Technologies, Santa Clara, CA, USA) equipped with an electrospray ionization (ESI) source, were used for separation and detection. Data were acquired and analyzed using Agilent ChemStation Software Version A.01.00 (Agilent Technologies, Santa Clara, CA, USA).
The separation was carried out with an Amethyst C18-H column (150 × 4.6 mm, 5 μm, Sepax Technologies, Newark, DE, USA) with a guard column SB-C18 (10 × 4.6 mm, 5 μm, Phenomenex Technologies, Torrance, USA) at a constant temperature of 25 °C.
The mass spectra were acquired using ESI interfaced to a single quadrupole mass spectrometer. The ionization conditions were as follows: drying gas (N2) flow rate of 11 L/min, drying gas temperature of 350 °C, nebulizing gas (N2) pressure of 35 psi, capillary voltage of 3,500 V, quad temperature of 100 °C, and fragment voltage of 110 V. A series of m/z were monitored using a timed program according to the retention times and characteristic ions for the corresponding HPLC-MS peak obtained by scanning from m/z 100–1,000 in the standard sample.
Briefly, an aliquot of plasma sample (100 μL) was spiked with 5% formic acid (10 μL) in centrifuge tube. Subsequently, hydrochloric acid (2 mol/L, 10 μL) and IS solution (960.00 ng/mL, 20 μL) were added. Then ethyl acetate/n-butyl alcohol (1:1 v/v; 1,000 μL) was used to extract the components. The samples were then homogenized by vortex mixing and centrifuged for 10 min at 14,000 rpm. After centrifugation, 800 μL of supernatant was transferred to another centrifuge tube and the sample was evaporated to dryness. The residues were dissolved in 100 μL of methanol and centrifuged for 10 min at 12,000 rpm. 50 μL of the supernatant was transferred to the vial and an aliquot of 5 μL was injected into the HPLC-MS system for analysis.
DAS 2.0 (Chinese Pharmacological Association, Shanghai, China) was used to calculate the pharmacokinetic parameters using the non-compartment model, including the area under curve (AUC), mean residence time (MRT), half-life ( t1/2z), clearance rate (CL), maximum plasma concentration (Cmax), and time (Tmax). All results are expressed as mean ± standard deviation (SD). One way analysis of variance followed by […] was used for comparison of different groups using Graph pad prism 5 software. A p-value of <0.05 was considered statistically significant.

[1] = IQ group (oral IQ 50 mg/kg), rat plasma
[2] = QG group (oral QG 50 mg/kg), rat plasma
[3] = Qr group (oral Qr 50 mg/kg), rat plasma

O=c1c(O)c(-c2ccc(O)c(O)c2)oc2cc(O)cc(O)c12 [Qr, Quercetin]
Plasma concentrations (IQ group (oral IQ 50 mg/kg), 5 min): 97 ng/mL and 72.1 ng/mL
Plasma concentrations (IQ group (oral IQ 50 mg/kg), 120 min): 1913.8 ng/mL and 3969.5 ng/mL and 3663.4 ng/mL and 3592.6 ng/mL and 4482.8 ng/mL
Plasma concentrations (IQ group (oral IQ 50 mg/kg), 180 min): 2424.7 ng/mL and 3384.3 ng/mL and 2628.6 ng/mL and 529.3 ng/mL and 3851.1 ng/mL
Plasma concentrations (IQ group (oral IQ 50 mg/kg), 240 min): 1940 ng/mL and 3381.2 ng/mL and 2408.4 ng/mL and 1320.4 ng/mL and 1250.9 ng/mL
Plasma concentrations (IQ group (oral IQ 50 mg/kg), 360 min): 1313.4 ng/mL and 2984 ng/mL and 4511 ng/mL and 1879.1 ng/mL and 1080.1 ng/mL
Plasma concentrations (IQ group (oral IQ 50 mg/kg), 480 min): 1825.8 ng/mL and 2829.2 ng/mL and 642.1 ng/mL and 975.9 ng/mL and 503.3 ng/mL
Plasma concentrations (IQ group (oral IQ 50 mg/kg), 1440 min): 90.3 ng/mL and 1333.2 ng/mL and 1663.4 ng/mL and 210.4 ng/mL and 61.1 ng/mL
AUC(0-t) [1]: 2661.03 mg·min/L and 1721.03 mg·min/L and 1261.04 mg·min/L and 1844.61 mg·min/L and 3575.83 mg·min/L
Cmax [1]: 8460 ng/mL and 10370.3 ng/mL and 4575 ng/mL and 4452 ng/mL and 5147 ng/mL
Tmax [1]: 30 min and 60 min
t1/2z [1]: 2.34307 h and 7.45293 h and 4.46562 h and 15.5735 h
Detection in rat plasma (IQ group: oral IQ 50 mg/kg): measured
Plasma concentrations (QG group (oral QG 50 mg/kg), 5 min): 0 ng/mL
Plasma concentrations (QG group (oral QG 50 mg/kg), 120 min): 0 ng/mL and 178 ng/mL and 350 ng/mL and 264.3 ng/mL and 91.3 ng/mL
Plasma concentrations (QG group (oral QG 50 mg/kg), 180 min): 1405.7 ng/mL and 1522.4 ng/mL and 4112 ng/mL and 56.4 ng/mL and 1551 ng/mL
Plasma concentrations (QG group (oral QG 50 mg/kg), 240 min): 2385.9 ng/mL and 4434.6 ng/mL and 6808.5 ng/mL and 1445.9 ng/mL and 1915.9 ng/mL
Plasma concentrations (QG group (oral QG 50 mg/kg), 360 min): 997.6 ng/mL and 4127.1 ng/mL and 4268 ng/mL and 6817.8 ng/mL and 3639.1 ng/mL
Plasma concentrations (QG group (oral QG 50 mg/kg), 480 min): 880.9 ng/mL and 5383.5 ng/mL and 6785.2 ng/mL and 4353.5 ng/mL and 4449.8 ng/mL
Plasma concentrations (QG group (oral QG 50 mg/kg), 1440 min): 254.4 ng/mL and 878.4 ng/mL and 519.9 ng/mL and 325 ng/mL and 366.2 ng/mL
AUC(0-t) [2]: 1100.93 mg·min/L and 4341.94 mg·min/L and 5313.01 mg·min/L and 3484.77 mg·min/L and 3287.74 mg·min/L
Cmax [2]: 2385.9 ng/mL and 5384 ng/mL and 6808 ng/mL and 6818 ng/mL and 4450 ng/mL
Tmax [2]: 480 min (2×) and 240 min and 360 min
t1/2z [2]: 9.05187 h and 8.35598 h and 5.58873 h and 4.1639 h and 3.28813 h
Plasma concentrations (Qr group (oral Qr 50 mg/kg), 5 min): 640.7 ng/mL and 69.5 ng/mL and 57.3 ng/mL and 802.4 ng/mL and 171.1 ng/mL
Plasma concentrations (Qr group (oral Qr 50 mg/kg), 120 min): 4624.9 ng/mL and 4603.8 ng/mL and 5199.9 ng/mL and 1294.5 ng/mL and 3649 ng/mL
Plasma concentrations (Qr group (oral Qr 50 mg/kg), 180 min): 3310.6 ng/mL and 4410.7 ng/mL and 6178.3 ng/mL and 1059.8 ng/mL and 3541.5 ng/mL
Plasma concentrations (Qr group (oral Qr 50 mg/kg), 240 min): 1969.1 ng/mL and 3087.5 ng/mL and 1750.4 ng/mL and 2254.1 ng/mL
Plasma concentrations (Qr group (oral Qr 50 mg/kg), 360 min): 3069.3 ng/mL and 1565.6 ng/mL and 2529.6 ng/mL and 1025.9 ng/mL and 1740.7 ng/mL
Plasma concentrations (Qr group (oral Qr 50 mg/kg), 480 min): 1701.5 ng/mL and 2705.9 ng/mL and 3008.7 ng/mL and 1156.8 ng/mL and 828.8 ng/mL
Plasma concentrations (Qr group (oral Qr 50 mg/kg), 1440 min): 416.7 ng/mL and 431.9 ng/mL and 601.2 ng/mL and 220.4 ng/mL and 329.6 ng/mL
AUC(0-t) [3]: 2664.65 mg·min/L and 3200.67 mg·min/L and 3831.17 mg·min/L and 1368.81 mg·min/L and 1887.27 mg·min/L
Cmax [3]: 7855 ng/mL and 9701 ng/mL and 9916 ng/mL and 3579 ng/mL and 6280 ng/mL
Tmax [3]: 90 min and 30 min
t1/2z [3]: 6.20775 h and 8.55312 h and 6.68888 h and 7.31962 h
Detection in rat plasma (Qr group: oral Qr 50 mg/kg): could be detected in rat plasma
CL (Qr group: oral Qr 50 mg/kg, rat plasma, mean ± SD, n = 5): 20 ± 8 mL/min/kg
